From article PMC8588536, “Iridal-Type Triterpenoids Displaying Human Neutrophil Elastase Inhibition and Anti-Inflammatory Effects from Belamcanda chinensis” (Molecules, 2021)

Test system: NF-κB p65 in LPS-stimulated RAW264.7 cells
Assay: NF-κB p65 nuclear translocation, Western blot of nuclear and cytoplasmic fractions
Type: cell-based, mouse
Conditions: 1 and 3 µg/mL, n = 3, p < 0.05
Procedure: RAW264.7 cells were homogenized in a hypotonic lysis buffer and centrifuged at 142× g for 5 min at 4 °C. The resulting pellets and supernatants were used for the isolation of nuclear and cytosoplasmic fraction, respectively. The pellets were incubated on ice for 5 min with a nuclear isolation buffer and were spun at 142× g using Eppendorf centrifuge 5424 R at 4 °C for 5 min. The resulting pellets were incubated on ice for 30 min with 2% Triton nuclear isolation buffer and were spun at 12,448× g at 4 °C for 15 min. For the cytosolic fraction, the resulting supernatants in the hypotonic lysis buffer were transferred to a new 1.5 mL tube and spun at 15,401× g for 15 min at 4 °C. The resulting supernatants were centrifuged at 100,000× g at 4 °C for 60 min in an ultracentrifuge (TLA 100.3; Optima MAX-XP, Beckman Coulter, Inc., Brea, CA, USA). The proteins of nuclear and cytosolic fractions were separated on 8% SDS-PAGE gel and blotted onto polyvinylidene difluoride membranes. Equal amounts of 35 µg were analyzed by Western blotting. Briefly, the membranes were blocked with 5% fat-free dry milk and then incubated with the anti-NF-κB p65 polyclonal antibody (1:1000 dilution; Cell Signaling Technology), and anti-β-actin monoclonal antibodies (1:5000 dilution). […]

CC(C)=CCCC(C)=CCC(O)C(C)=CCCC1(C)C(CCCO)C(=C(C)C=O)CCC1(C)O (stereo not shown) [Compound 2, iridobelamal A]
nuclear translocation of p65 protein (Western blot): inhibited
